TD50 data for 3 compounds are collected here from PubChem BioAssay AID1745844 (Carcinogenic Potency Database (CPDB), 2022).

The test system of this series is rodent lifetime carcinogenesis bioassay, tumor incidence TD50. Put plainly: chronic cancer bioassays in animals – CPDB, compiled studies (AID 1745844).

By TD50 is commonly meant the 50% point of the dose-response relation for the toxic effect studied. Take `ClC(Cl)=C(Cl)Cl`: the TD50 by setting is: (mouse, strain B6C3F1, females, by gavage, site: any site (literature study), lesion: several types, types named in the paper, dosed 78 weeks, study length 90 weeks) 98.1 mg/kg/day; (mouse, strain B6C3F1, females, by gavage, site: liver, lesion: hepatocellular adenoma + hepatocellular carcinoma + neoplastic nodule, dosed 78 weeks, study length 90 weeks) 75.6 mg/kg/day; (mouse, strain B6C3F1, females, by gavage, site: liver, lesion: hepatocellular carcinoma, dosed 78 weeks, study length 90 weeks) 75.6 mg/kg/day; (mouse, strain B6C3F1, females, by gavage, site: lung, lesion: alveolar/bronchiolar adenoma + alveolar/bronchiolar carcinoma, dosed 78 weeks, study length 90 weeks) 2950 mg/kg/day; (mouse, strain B6C3F1, females, inhaled, site: any site (literature study), lesion: several types, types named in the paper, dosed 103 weeks, study length 104 weeks) 211 mg/kg/day; (mouse, strain B6C3F1, females, inhaled, site: liver, lesion: hepatocellular adenoma + hepatocellular carcinoma + neoplastic nodule, dosed 103 weeks, study length 104 weeks) 188 mg/kg/day. The TD50 is 188 mg/kg/day (mouse, strain B6C3F1, females, inhaled, site: liver, lesion: hepatocellular adenoma + hepatocellular carcinoma, dosed 103 weeks, study length 104 weeks); 200 mg/kg/day (mouse, strain B6C3F1, females, inhaled, site: liver, lesion: hepatocellular carcinoma, dosed 103 weeks, study length 104 weeks); 160 mg/kg/day (mouse, strain B6C3F1, males, by gavage, site: any site (literature study), lesion: several types, types named in the paper, dosed 78 weeks, study length 90 weeks); 123 mg/kg/day (mouse, strain B6C3F1, males, by gavage, site: liver, lesion: hepatocellular adenoma + hepatocellular carcinoma + neoplastic nodule, dosed 78 weeks, study length 90 weeks); 123 mg/kg/day (mouse, strain B6C3F1, males, by gavage, site: liver, lesion: hepatocellular carcinoma, dosed 78 weeks, study length 90 weeks); 225 mg/kg/day (mouse, strain B6C3F1, males, inhaled, site: any site (literature study), lesion: several types, types named in the paper, dosed 103 weeks, study length 104 weeks). Further, the TD50 was 190 mg/kg/day (mouse, strain B6C3F1, males, inhaled, site: liver, lesion: hepatocellular adenoma + hepatocellular carcinoma + neoplastic nodule, dosed 103 weeks, study length 104 weeks); 190 mg/kg/day (mouse, strain B6C3F1, males, inhaled, site: liver, lesion: hepatocellular adenoma + hepatocellular carcinoma, dosed 103 weeks, study length 104 weeks); 668 mg/kg/day (mouse, strain B6C3F1, males, inhaled, site: liver, lesion: hepatocellular adenoma, dosed 103 weeks, study length 104 weeks); 162 mg/kg/day (mouse, strain B6C3F1, males, inhaled, site: liver, lesion: hepatocellular carcinoma, dosed 103 weeks, study length 104 weeks); 6050 mg/kg/day (mouse, strain B6C3F1, males, inhaled, site: lung, lesion: alveolar/bronchiolar adenoma + alveolar/bronchiolar carcinoma, dosed 103 weeks, study length 104 weeks); 681 mg/kg/day (mouse, strain B6C3F1, males, inhaled, site: mesenteric lymph node + multiple organs + spleen + subcutaneous tissue, lesion: malignant lymphoma, NOS, dosed 103 weeks, study length 104 weeks). Also, the TD50 (mouse, strain Crj:BDF1, females, inhaled, site: liver, lesion: hepatocellular adenoma, dosed 104 weeks, study length 104 weeks) is 560 mg/kg/day; the TD50 (mouse, strain Crj:BDF1, females, inhaled, site: liver, lesion: hepatocellular carcinoma, dosed 104 weeks, study length 104 weeks) is 1420 mg/kg/day; the TD50 (mouse, strain Crj:BDF1, females, inhaled, site: liver, lesion: several types, types named in the paper, dosed 104 weeks, study length 104 weeks) was 396 mg/kg/day; the TD50 (mouse, strain Crj:BDF1, males, inhaled, site: Harderian gland, lesion: adenoma, dosed 104 weeks, study length 104 weeks) is 2330 mg/kg/day; the TD50 (mouse, strain Crj:BDF1, males, inhaled, site: liver, lesion: hepatocellular adenoma, dosed 104 weeks, study length 104 weeks) is 602 mg/kg/day; the TD50 (mouse, strain Crj:BDF1, males, inhaled, site: liver, lesion: hepatocellular carcinoma, dosed 104 weeks, study length 104 weeks) is 555 mg/kg/day. The TD50 is 257 mg/kg/day (mouse, strain Crj:BDF1, males, inhaled, site: liver, lesion: several types, types named in the paper, dosed 104 weeks, study length 104 weeks); 1080 mg/kg/day (rat, strain F344/DuCrj, females, inhaled, site: spleen, lesion: mononuclear-cell leukemia, dosed 104 weeks, study length 104 weeks); 28300 mg/kg/day (rat, strain F344/DuCrj, males, inhaled, site: liver, lesion: hepatocellular adenoma, dosed 104 weeks, study length 104 weeks); 257 mg/kg/day (rat, strain F344/DuCrj, males, inhaled, site: spleen, lesion: mononuclear-cell leukemia, dosed 104 weeks, study length 104 weeks); 869 mg/kg/day (rat, strain Fischer 344, females, inhaled, site: any site (literature study), lesion: several types, types named in the paper, dosed 103 weeks, study length 104 weeks); 287 mg/kg/day (rat, strain Fischer 344, females, inhaled, site: multiple organs + spleen, lesion: mononuclear-cell leukemia, dosed 103 weeks, study length 104 weeks). The TD50 by setting is: (rat, strain Fischer 344, males, inhaled, site: any site (literature study), lesion: several types, types named in the paper, dosed 103 weeks, study length 104 weeks) 77.7 mg/kg/day; (rat, strain Fischer 344, males, inhaled, site: kidney + liver + multiple organs + spleen, lesion: tubular-cell adenoma + tubular-cell adenocarcinoma + mononuclear-cell leukemia, dosed 103 weeks, study length 104 weeks) 90.8 mg/kg/day; (rat, strain Fischer 344, males, inhaled, site: kidney, lesion: tubular-cell adenoma + tubular-cell adenocarcinoma, dosed 103 weeks, study length 104 weeks) 504 mg/kg/day; (rat, strain Fischer 344, males, inhaled, site: liver + multiple organs + spleen, lesion: mononuclear-cell leukemia, dosed 103 weeks, study length 104 weeks) 101 mg/kg/day; (rat, strain Fischer 344, males, inhaled, site: liver, lesion: hepatocellular adenoma + hepatocellular carcinoma + neoplastic nodule, dosed 103 weeks, study length 104 weeks) 368 mg/kg/day; (rat, strain Fischer 344, males, inhaled, site: testis, lesion: interstitial-cell tumor, dosed 103 weeks, study length 104 weeks) 68.6 mg/kg/day. In addition, the TD50 by setting is: (rat, strain Osborne-Mendel, females, by gavage, site: any site (literature study), lesion: several types, types named in the paper, dosed 78 weeks, study length 110 weeks) 1710 mg/kg/day; (rat, strain Osborne-Mendel, males, by gavage, site: any site (literature study), lesion: several types, types named in the paper, dosed 78 weeks, study length 112 weeks) 3020 mg/kg/day.

Consider `CC1CN(N=O)C(=O)O1` (configuration not stated), for which the TD50 (hamster, strain Syrian Golden, females, by gavage, site: forestomach, lesion: several types, types named in the paper, dosed 28 weeks, study length 60 weeks) is 0.172 mg/kg/day.

As to `O=c1[nH]nc(-c2ccc([N+](=O)[O-])o2)o1`, the TD50 was 8.61 mg/kg/day (rat, strain Sprague-Dawley, females, in feed, site: any site (literature study), lesion: several types, types named in the paper, dosed 46 weeks, study length 66 weeks); 31.2 mg/kg/day (rat, strain Sprague-Dawley, females, in feed, site: mammary gland, lesion: adenocarcinoma, dosed 46 weeks, study length 66 weeks); 8.61 mg/kg/day (rat, strain Sprague-Dawley, females, in feed, site: mammary gland, lesion: several types, types named in the paper, dosed 46 weeks, study length 66 weeks).
